US9073903B2, “Imidazole-2,4-dione inhibitors of casein kinase 1” (Jasco Pharmaceuticals, LLC, priority 2010, dated 2015)
Where two headings read alike, the source gives them in different places.

Columns and labels:
LNCaP = assay: Inhibition of LNCaP cells (MTS cell proliferation); assay type: cell-based; settings: for OD value 1 / OD value 2: 490 nm; for OD value 1 / OD value 2 / inhibition at 0.4 µM / inhibition at 0.8 µM / inhibition at 1.6 µM / inhibition at 3.2 µM / inhibition at 6.25 µM / inhibition at 12.5 µM / inhibition at 25 µM / inhibition at 50 µM / inhibition at 100 µM: 72 h; for inhibition at 0.4 µM / inhibition at 0.8 µM / inhibition at 1.6 µM / inhibition at 3.2 µM / inhibition at 6.25 µM / inhibition at 12.5 µM / inhibition at 25 µM / inhibition at 50 µM / inhibition at 100 µM / IC50: Homo sapiens
Description: Inhibition of LNCaP Cells Cells: LNCaP, ATCC Passage unknown, Mycoplasma free. Medium: RPMI-1640 Medium (GIBCO Cat #22400121) supplemented with 10% fetal bovine serum (Hyclone Cat #SH30396.03). Seeding: 3,000 cells/well (100 uL) into 96-wells plate, incubated overnight at 37° C. in a humidified, 5% CO2 atmosphere. Treatment: Test compounds and Gemcitabine were prepared in a serial dilution (1:2) by culture medium. Fifty microliters (50 uL) of serially diluted solutions were added into each well. The final concentrations of the positive control and test compounds were shown in the graphs. The cells were incubated for 72 hours after addition of the test compounds. MTS: 15 uL of MTS solution (Promega Cat #G5430) was added into each well and incubated with cells for 4 hours at 37° C. in a humidified, 5% CO2 atmosphere. Measurement: Absorbance at 490 nm was measured using MD Spectramax Plus384 spectrophotometer. The regression curves were calculated by the GraphPad Prism 5 using “log(inhibitor) vs response—variable slope”. Calculation: % of inhibition+(AVE zero ctrl−AVE compound)/AVE zero ctrl*100.

DU145 cells = assay: Inhibition of DU145 cells (MTS cell proliferation); assay type: cell-based; settings: for inhibition at 0.4 µM / inhibition at 0.8 µM / inhibition at 1.6 µM / inhibition at 3.2 µM / inhibition at 6.25 µM / inhibition at 12.5 µM / inhibition at 25 µM / inhibition at 50 µM / inhibition at 100 µM / IC50: Homo sapiens, DU-145; for inhibition at 0.4 µM: 0.400 uM; for inhibition at 0.8 µM: 0.800 uM; for inhibition at 1.6 µM: 1.600 uM; for inhibition at 3.2 µM: 3.200 uM; for inhibition at 6.25 µM: 6.250 uM; for inhibition at 12.5 µM: 12.500 uM
Description: Inhibition of DU145 Cells Cells: DU145 cells, ATCC Passage unknown, Mycoplasma free. Medium: DMEM Medium (GIBCO Cat #11995073) supplemented with 10% fetal bovine serum (Hyclone Cat #SH30396.03). Seeding: 750 cells/well (100 μL) into 96-wells plate, incubated overnight at 37° C. in a humidified, 5% CO2 atmosphere. Treatment: Test compounds and Gemcitabine were prepared in a serial dilution (1:2) by culture medium. Fifty microliters (50 uL) of serially diluted solutions were added into each well. The final concentrations of the positive control and test compounds were shown in the graphs. The cells were incubated for 72 hours after addition of the test compounds. MTS: 15 uL of MTS solution (Promega Cat #G5430) was added into each well and incubated with cells for 4 hours at 37° C. in a humidified, 5% CO2 atmosphere. Measurement: Absorbance at 490 nm was measured using MD Spectramax Plus384 spectrophotometer. The regression curves were calculated by the GraphPad Prism 5 using “log(inhibitor) vs response—variable slope”.

[1] = 72 hours, replicate 1, read-out: % of inhibition 1
[2] = 72 hours, replicate 2, read-out: % of inhibition 2

For `Nc1ccn([C@@H]2O[C@H](CO)[C@@H](O)C2(F)F)c(=O)n1` [Gemcitabine], the “OD value 1” value (LNCaP; 0.400 uM, replicate 1) was 0.578, the “OD value 2” value (LNCaP; 0.400 uM, replicate 2) was 0.662 and the “OD value 1” value (LNCaP; 0.800 uM, replicate 1) was 0.459. For the same molecule, the “OD value 2” value (LNCaP; 0.800 uM, replicate 2) was 0.434, the “OD value 1” value (LNCaP; 1.600 uM, replicate 1) was 0.448 and the “OD value 2” value (LNCaP; 1.600 uM, replicate 2) was 0.472. The “OD value 1” value (LNCaP; 3.200 uM, replicate 1) was 0.322, the “OD value 2” value (LNCaP; 3.200 uM, replicate 2) was 0.337 and the “OD value 1” value (LNCaP; 6.250 uM, replicate 1) was 0.182. For the same molecule, the “OD value 2” value (LNCaP; 6.250 uM, replicate 2) was 0.190, the “OD value 1” value (LNCaP; 12.500 uM, replicate 1) was 0.166 and the “OD value 2” value (LNCaP; 12.500 uM, replicate 2) was 0.173. For the same molecule, the “OD value 1” value (LNCaP; 25.000 uM, replicate 1) was 0.101, the “OD value 2” value (LNCaP; 25.000 uM, replicate 2) was 0.177 and the “OD value 1” value (LNCaP; 50.000 uM, replicate 1) was 0.124. For the same molecule, the “OD value 2” value (LNCaP; 50.000 uM, replicate 2) was 0.202, the “OD value 1” value (LNCaP; 100.000 uM, replicate 1) was 0.112 and the “OD value 2” value (LNCaP; 100.000 uM, replicate 2) was 0.197. For the same molecule, the inhibition at 0.4 µM (LNCaP; LNCaP, 0.400 uM, replicate 1, read-out: % of inhibition 1) was 12.8%, the inhibition at 0.4 µM (LNCaP; LNCaP, 0.400 uM, replicate 2, read-out: % of inhibition 2) was 13.6% and the inhibition at 0.8 µM (LNCaP; LNCaP, 0.800 uM, replicate 1, read-out: % of inhibition 1) was 30.8%. It also gave an inhibition at 0.8 µM (LNCaP; LNCaP, 0.800 uM, replicate 2, read-out: % of inhibition 2) of 43.4%, an inhibition at 1.6 µM (LNCaP; LNCaP, 1.600 uM, replicate 1, read-out: % of inhibition 1) of 32.4% and an inhibition at 1.6 µM (LNCaP; LNCaP, 1.600 uM, replicate 2, read-out: % of inhibition 2) of 38.4%. It also gave an inhibition at 3.2 µM (LNCaP; LNCaP, 3.200 uM, replicate 1, read-out: % of inhibition 1) of 51.4%, an inhibition at 3.2 µM (LNCaP; LNCaP, 3.200 uM, replicate 2, read-out: % of inhibition 2) of 56% and an inhibition at 6.25 µM (LNCaP; LNCaP, 6.250 uM, replicate 1, read-out: % of inhibition 1) of 72.5%. For the same molecule, the inhibition at 6.25 µM (LNCaP; LNCaP, 6.250 uM, replicate 2, read-out: % of inhibition 2) was 75.2%, the inhibition at 12.5 µM (LNCaP; LNCaP, 12.500 uM, replicate 1, read-out: % of inhibition 1) was 75% and the inhibition at 12.5 µM (LNCaP; LNCaP, 12.500 uM, replicate 2, read-out: % of inhibition 2) was 77.4%. It also gave an inhibition at 25 µM (LNCaP; LNCaP, 25.000 uM, replicate 1, read-out: % of inhibition 1) of 84.8%, an inhibition at 25 µM (LNCaP; LNCaP, 25.000 uM, replicate 2, read-out: % of inhibition 2) of 76.9% and an inhibition at 50 µM (LNCaP; LNCaP, 50.000 uM, replicate 1, read-out: % of inhibition 1) of 81.3%. The inhibition at 50 µM (LNCaP; LNCaP, 50.000 uM, replicate 2, read-out: % of inhibition 2) was 73.6%, the inhibition at 100 µM (LNCaP; LNCaP, 100.000 uM, replicate 1, read-out: % of inhibition 1) was 83.1% and the inhibition at 100 µM (LNCaP; LNCaP, 100.000 uM, replicate 2, read-out: % of inhibition 2) was 74.3%. For the same molecule, the IC50 (LNCaP; LNCaP, Table 18, read-out: LNCaP* 50% inhibition concentration) was 1970 nM, the IC50 (LNCaP; Table 26, LNCaP, 72 hours, read-out: 50% viability conc.) was 1970 nM and the IC50 (LNCaP; Table 26, LNCaP, 72 hours, read-out: IC50) was 2380 nM. It also gave a Maximal inhibition % (LNCaP; Table 26, LNCaP, 72 hours) of 78.69%, an inhibition at 0.4 µM (DU145 cells; [1]) of 17.4% and an inhibition at 0.4 µM (DU145 cells; [2]) of 15.6%. It also gave an inhibition at 0.8 µM (DU145 cells; [1]) of 35.2%, an inhibition at 0.8 µM (DU145 cells; [2]) of 32.9% and an inhibition at 1.6 µM (DU145 cells; [1]) of 59%. For the same molecule, the inhibition at 1.6 µM (DU145 cells; [2]) was 54.3%, the inhibition at 3.2 µM (DU145 cells; [1]) was 95.5% and the inhibition at 3.2 µM (DU145 cells; [2]) was 96.2%. The inhibition at 6.25 µM (DU145 cells; [1]) was 96.8%, the inhibition at 6.25 µM (DU145 cells; [2]) was 96.2% and the inhibition at 12.5 µM (DU145 cells; [1]) was 96.6%. The inhibition at 12.5 µM (DU145 cells; [2]) was 97.3%, the inhibition at 25 µM (DU145 cells; [1]) was 97% and the inhibition at 25 µM (DU145 cells; [2]) was 96.2%. For the same molecule, the inhibition at 50 µM (DU145 cells; [1]) was 97.4%, the inhibition at 50 µM (DU145 cells; [2]) was 98.9% and the inhibition at 100 µM (DU145 cells; [1]) was 97.9%. For the same molecule, the inhibition at 100 µM (DU145 cells; [2]) was 97.2%, the IC50 (DU145 cells; Table 17, read-out: DU145* 50% inhibition concentration) was 1280 nM and the IC50 (DU145 cells; Table 26, DU145, 72 hours, read-out: 50% viability conc.) was 1280 nM. For the same molecule, the IC50 (DU145 cells; Table 26, DU145, 72 hours, read-out: IC50) was 1170 nM and the Maximal inhibition % (DU145 cells; Table 26, DU145, 72 hours) was 97.55%.
